Experiments:
Adenosine receptor A3 = molecular target: T1, Adenosine receptor A3 (Homo sapiens, UniProt P0DMS8); assay: Selectivity interaction (Radioligand binding assay (MDS Pharma Service)) EUB0000296b ADORA3
T1 sequence (P0DMS8 whole entry): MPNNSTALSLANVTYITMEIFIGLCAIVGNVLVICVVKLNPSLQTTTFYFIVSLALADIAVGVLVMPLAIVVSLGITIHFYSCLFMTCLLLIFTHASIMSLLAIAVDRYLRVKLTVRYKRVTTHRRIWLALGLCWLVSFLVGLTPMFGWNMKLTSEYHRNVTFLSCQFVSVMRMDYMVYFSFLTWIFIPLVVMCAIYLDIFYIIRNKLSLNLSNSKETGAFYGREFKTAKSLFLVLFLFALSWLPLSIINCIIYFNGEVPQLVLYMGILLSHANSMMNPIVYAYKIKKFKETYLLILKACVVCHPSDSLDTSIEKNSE

[1] = molecular target: T2, Alpha-2C adrenergic receptor (Homo sapiens, UniProt P18825); assay: Selectivity interaction (Radioligand binding assay (MDS Pharma Service)) EUB0000296b ADRA2C
T2 sequence (P18825 whole entry): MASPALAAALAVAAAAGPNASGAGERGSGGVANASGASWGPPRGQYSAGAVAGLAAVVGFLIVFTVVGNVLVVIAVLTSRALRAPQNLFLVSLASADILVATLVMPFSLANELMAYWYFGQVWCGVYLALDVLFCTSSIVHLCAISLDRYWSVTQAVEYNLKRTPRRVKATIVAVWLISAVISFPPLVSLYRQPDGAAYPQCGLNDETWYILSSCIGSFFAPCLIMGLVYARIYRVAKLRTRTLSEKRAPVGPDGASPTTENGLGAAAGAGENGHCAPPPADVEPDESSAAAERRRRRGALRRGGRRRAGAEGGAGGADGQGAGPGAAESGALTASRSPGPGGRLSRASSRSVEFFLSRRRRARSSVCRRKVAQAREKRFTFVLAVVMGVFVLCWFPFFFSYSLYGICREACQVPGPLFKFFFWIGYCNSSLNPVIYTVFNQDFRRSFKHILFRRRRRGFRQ

[2] = molecular target: Serine/threonine-protein kinase STK11 (Homo sapiens) (UniProt Q15831); assay: Selectivity interaction (KinomeScan (DiscoverX)) EUB0000296b STK11; conditions: at 1 µM
Serine/threonine-protein kinase STK11 (Homo sapiens), sequence (Q15831 whole entry): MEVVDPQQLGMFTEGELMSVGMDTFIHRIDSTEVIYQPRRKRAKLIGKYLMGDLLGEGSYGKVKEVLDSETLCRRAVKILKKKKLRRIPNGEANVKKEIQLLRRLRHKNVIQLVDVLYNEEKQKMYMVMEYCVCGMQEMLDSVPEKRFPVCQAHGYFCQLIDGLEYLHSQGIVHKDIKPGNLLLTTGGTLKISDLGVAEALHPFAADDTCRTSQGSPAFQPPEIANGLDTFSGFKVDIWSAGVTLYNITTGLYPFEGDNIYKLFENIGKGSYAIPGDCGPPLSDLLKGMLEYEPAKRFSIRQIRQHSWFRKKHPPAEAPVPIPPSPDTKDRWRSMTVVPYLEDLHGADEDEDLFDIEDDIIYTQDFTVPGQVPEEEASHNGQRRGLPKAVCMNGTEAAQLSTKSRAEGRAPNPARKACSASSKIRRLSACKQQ

[3] = molecular target: Polyunsaturated fatty acid 5-lipoxygenase (Homo sapiens, UniProt P09917); assay: Selectivity interaction (MSD Pharma/Taiwan screen (enzymes and receptors) ) EUB0000296b ALOX5
Polyunsaturated fatty acid 5-lipoxygenase, sequence (P09917 whole entry): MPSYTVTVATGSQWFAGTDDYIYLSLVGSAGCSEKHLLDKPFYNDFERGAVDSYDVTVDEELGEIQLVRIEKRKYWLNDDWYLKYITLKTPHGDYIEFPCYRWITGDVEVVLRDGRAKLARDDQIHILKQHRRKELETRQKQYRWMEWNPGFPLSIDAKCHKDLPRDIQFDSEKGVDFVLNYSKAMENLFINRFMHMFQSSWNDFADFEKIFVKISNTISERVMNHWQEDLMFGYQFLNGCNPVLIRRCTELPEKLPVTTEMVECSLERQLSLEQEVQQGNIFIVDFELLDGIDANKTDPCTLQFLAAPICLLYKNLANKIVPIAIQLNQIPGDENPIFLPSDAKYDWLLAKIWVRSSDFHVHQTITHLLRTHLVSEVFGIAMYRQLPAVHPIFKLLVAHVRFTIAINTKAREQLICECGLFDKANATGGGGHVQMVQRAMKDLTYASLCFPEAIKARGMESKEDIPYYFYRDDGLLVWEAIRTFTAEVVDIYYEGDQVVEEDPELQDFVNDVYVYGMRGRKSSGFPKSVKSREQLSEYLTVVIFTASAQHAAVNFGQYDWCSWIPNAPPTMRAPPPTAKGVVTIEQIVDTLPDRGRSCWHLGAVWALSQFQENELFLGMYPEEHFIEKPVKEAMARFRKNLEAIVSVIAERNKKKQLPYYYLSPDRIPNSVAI

[4] = molecular target: Synaptic vesicular amine transporter (Homo sapiens, UniProt Q05940); assay: Selectivity interaction (Radioligand binding assay (MDS Pharma Service)) EUB0000296b SLC18A2
Synaptic vesicular amine transporter, sequence (Q05940 whole entry): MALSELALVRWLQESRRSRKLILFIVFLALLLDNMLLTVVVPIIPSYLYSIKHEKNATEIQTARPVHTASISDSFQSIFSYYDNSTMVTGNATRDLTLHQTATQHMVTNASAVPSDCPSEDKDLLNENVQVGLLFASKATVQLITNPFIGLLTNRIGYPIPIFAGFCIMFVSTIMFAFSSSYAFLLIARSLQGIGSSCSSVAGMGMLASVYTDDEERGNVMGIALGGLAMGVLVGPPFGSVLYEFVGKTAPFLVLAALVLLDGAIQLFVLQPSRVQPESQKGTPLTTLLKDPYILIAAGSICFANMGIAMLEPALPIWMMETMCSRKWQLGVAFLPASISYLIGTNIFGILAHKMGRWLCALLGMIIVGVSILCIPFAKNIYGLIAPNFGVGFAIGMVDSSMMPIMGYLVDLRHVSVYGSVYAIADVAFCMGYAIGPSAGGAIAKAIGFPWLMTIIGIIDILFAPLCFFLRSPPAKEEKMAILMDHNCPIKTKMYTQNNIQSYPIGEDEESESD

[5] = molecular target: Dual specificity tyrosine-phosphorylation-regulated kinase 1B (Homo sapiens, UniProt Q9Y463); assay: Selectivity interaction (KinomeScan (DiscoverX)) EUB0000296b DYRK1B; conditions: at 1 µM
[6] = molecular target: Mitogen-activated protein kinase 3 (Homo sapiens, UniProt P27361); assay: Selectivity interaction (MSD Pharma/Taiwan screen (enzymes and receptors) ) EUB0000296b MAPK3
[7] = molecular target: Mitogen-activated protein kinase 14 (Homo sapiens, UniProt Q16539); assay: Selectivity interaction (MSD Pharma/Taiwan screen (enzymes and receptors) ) EUB0000296b MAPK14
Mitogen-activated protein kinase 14, sequence (Q16539 whole entry): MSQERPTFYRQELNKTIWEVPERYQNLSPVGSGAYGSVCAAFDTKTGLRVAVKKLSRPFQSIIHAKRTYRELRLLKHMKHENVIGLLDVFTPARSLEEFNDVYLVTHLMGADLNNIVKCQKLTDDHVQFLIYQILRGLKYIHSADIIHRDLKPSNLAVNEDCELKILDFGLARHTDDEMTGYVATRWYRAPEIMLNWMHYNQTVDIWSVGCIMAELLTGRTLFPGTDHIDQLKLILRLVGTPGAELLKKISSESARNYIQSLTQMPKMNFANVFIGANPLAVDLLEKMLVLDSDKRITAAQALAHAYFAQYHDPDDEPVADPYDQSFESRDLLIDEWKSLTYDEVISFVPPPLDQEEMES

[8] = molecular target: Sodium-dependent dopamine transporter (Homo sapiens, UniProt Q01959); assay: Selectivity interaction (Radioligand binding assay (MDS Pharma Service)) EUB0000296b SLC6A3
[9] = molecular target: eIF-2-alpha kinase GCN2 (Homo sapiens) (UniProt Q9P2K8); assay: Selectivity interaction (KinomeScan (DiscoverX)) EUB0000296b EIF2AK4; conditions: at 1 µM
[10] = molecular target: Phosphatidylinositol 4-phosphate 3-kinase C2 domain-containing subunit beta (Homo sapiens) (UniProt O00750); assay: Selectivity interaction (KinomeScan (DiscoverX)) EUB0000296b PIK3C2B; conditions: at 1 µM
Phosphatidylinositol 4-phosphate 3-kinase C2 domain-containing subunit beta (Homo sapiens), sequence (O00750 whole entry, the tested form may be a part): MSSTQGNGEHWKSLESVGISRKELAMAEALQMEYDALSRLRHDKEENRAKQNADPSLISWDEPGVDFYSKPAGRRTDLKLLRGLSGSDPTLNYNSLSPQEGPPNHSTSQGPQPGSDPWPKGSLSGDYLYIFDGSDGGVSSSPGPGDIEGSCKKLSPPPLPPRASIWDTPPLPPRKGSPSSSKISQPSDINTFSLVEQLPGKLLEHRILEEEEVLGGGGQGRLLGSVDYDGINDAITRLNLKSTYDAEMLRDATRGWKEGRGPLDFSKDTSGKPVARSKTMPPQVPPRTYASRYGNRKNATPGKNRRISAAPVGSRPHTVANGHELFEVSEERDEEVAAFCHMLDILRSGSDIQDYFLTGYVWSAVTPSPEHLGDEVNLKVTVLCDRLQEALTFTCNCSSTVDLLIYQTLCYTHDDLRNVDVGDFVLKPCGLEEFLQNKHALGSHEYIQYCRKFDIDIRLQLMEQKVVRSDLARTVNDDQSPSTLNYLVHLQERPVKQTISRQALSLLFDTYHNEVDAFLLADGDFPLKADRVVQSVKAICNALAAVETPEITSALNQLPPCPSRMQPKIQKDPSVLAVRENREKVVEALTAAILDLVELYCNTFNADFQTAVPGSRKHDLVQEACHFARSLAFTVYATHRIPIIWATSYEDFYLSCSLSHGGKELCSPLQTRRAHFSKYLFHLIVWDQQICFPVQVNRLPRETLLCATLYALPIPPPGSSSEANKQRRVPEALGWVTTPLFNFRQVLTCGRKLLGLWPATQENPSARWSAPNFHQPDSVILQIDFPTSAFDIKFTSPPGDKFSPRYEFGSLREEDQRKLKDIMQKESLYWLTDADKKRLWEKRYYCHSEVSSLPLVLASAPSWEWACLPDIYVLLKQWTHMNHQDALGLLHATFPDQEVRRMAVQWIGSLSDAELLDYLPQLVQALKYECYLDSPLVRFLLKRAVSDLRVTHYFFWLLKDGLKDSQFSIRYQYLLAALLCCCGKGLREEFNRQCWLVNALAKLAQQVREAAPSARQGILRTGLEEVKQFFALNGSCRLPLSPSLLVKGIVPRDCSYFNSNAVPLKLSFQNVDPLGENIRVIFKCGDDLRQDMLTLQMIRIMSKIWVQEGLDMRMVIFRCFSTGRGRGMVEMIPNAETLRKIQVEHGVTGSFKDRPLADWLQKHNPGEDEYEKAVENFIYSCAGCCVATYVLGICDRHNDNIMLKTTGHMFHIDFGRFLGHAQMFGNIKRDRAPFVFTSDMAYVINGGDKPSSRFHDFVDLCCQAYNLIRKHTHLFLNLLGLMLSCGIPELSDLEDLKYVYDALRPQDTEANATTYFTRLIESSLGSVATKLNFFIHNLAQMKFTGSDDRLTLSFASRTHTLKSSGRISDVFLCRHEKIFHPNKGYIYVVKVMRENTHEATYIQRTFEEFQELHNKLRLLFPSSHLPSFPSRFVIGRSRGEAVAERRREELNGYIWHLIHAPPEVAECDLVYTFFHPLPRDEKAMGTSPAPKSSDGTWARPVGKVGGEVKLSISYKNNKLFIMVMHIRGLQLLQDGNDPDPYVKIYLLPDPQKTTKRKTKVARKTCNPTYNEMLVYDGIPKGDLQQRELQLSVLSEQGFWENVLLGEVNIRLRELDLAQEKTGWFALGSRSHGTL

[11] = molecular target: T3, Gamma-aminobutyric acid receptor subunit alpha-1 (Homo sapiens, UniProt P14867); assay: Selectivity interaction (GPCR panel (PDSP screen)) EUB0000296b GABRA1
T3 sequence (P14867 whole entry): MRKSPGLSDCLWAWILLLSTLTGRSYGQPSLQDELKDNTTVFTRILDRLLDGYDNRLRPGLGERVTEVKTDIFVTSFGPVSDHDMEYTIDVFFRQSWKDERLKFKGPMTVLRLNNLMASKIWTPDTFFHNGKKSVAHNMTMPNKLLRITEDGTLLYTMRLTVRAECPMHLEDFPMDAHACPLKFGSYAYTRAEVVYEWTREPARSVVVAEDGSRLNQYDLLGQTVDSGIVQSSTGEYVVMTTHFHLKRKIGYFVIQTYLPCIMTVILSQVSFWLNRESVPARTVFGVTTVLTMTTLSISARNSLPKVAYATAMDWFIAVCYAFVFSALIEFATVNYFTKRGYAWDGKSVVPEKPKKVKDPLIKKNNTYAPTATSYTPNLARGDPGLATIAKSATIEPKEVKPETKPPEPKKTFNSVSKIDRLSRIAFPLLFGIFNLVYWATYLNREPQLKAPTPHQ

[12] = molecular target: Epidermal growth factor receptor (Homo sapiens, UniProt P00533); assay: Selectivity interaction (MSD Pharma/Taiwan screen (enzymes and receptors) ) EUB0000296b EGFR
Epidermal growth factor receptor, sequence (P00533 whole entry): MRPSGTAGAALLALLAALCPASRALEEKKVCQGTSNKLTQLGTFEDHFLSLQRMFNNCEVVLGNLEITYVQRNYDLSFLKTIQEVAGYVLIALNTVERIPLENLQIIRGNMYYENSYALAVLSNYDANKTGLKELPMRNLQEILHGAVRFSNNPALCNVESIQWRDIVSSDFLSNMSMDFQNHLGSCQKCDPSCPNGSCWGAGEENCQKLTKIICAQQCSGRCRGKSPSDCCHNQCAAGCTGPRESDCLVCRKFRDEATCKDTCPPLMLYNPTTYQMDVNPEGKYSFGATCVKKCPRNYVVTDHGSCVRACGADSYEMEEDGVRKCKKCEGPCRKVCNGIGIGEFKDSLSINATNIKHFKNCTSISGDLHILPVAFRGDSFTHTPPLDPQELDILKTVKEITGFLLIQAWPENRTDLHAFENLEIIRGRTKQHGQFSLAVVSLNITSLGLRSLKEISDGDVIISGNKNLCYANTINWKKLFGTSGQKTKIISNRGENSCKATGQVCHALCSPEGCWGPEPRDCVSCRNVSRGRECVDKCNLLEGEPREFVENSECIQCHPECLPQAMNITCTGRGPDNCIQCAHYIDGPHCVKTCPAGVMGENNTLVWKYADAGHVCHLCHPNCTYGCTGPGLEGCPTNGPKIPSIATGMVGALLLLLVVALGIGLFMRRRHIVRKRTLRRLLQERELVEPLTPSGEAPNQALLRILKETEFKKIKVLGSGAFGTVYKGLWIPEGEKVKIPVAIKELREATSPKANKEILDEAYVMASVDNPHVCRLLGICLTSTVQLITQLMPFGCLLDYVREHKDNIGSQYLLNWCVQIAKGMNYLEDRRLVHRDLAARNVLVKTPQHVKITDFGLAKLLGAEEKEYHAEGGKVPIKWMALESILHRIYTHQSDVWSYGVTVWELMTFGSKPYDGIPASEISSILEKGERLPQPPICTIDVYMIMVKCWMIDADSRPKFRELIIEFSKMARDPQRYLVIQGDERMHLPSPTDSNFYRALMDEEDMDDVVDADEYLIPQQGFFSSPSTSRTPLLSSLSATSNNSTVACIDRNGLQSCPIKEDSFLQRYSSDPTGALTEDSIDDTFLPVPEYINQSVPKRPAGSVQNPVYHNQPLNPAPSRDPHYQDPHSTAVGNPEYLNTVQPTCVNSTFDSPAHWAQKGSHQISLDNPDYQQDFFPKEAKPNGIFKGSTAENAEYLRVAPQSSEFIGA

[13] = molecular target: Protein kinase C epsilon type (Homo sapiens) (UniProt Q02156); assay: Selectivity interaction (KinomeScan (DiscoverX)) EUB0000296b PRKCE; conditions: at 1 µM

Ki (Adenosine receptor A3): 773 nM | Ki [1]: 1130 nM | % of control [2]: 43% | IC50 [3]: 1340 nM | Ki [4]: 648 nM | % of control [5]: 35% | IC50 [6]: 8610 nM | IC50 [7]: 3680 nM | Ki [8]: 799 nM | % of control [9]: 48% | % of control [10]: 48% | Ki [11]: 82 nM | IC50 [12]: 3260 nM | % of control [13]: 48%
SMILES: CC(=O)Nc1c(C(C)=O)c(=O)n(C)c2nc(-c3ccc(Cl)cc3Cl)c(-c3ccc(Cl)cc3)cc12 [NAPHTHYRIDINONE]

Source: ChEMBL document CHEMBL5212743, “Selectivity Literature for EUbOPEN Chemogenomics Library wave 3” (2023)
